Data from patent US20150352108A1, “AMINO-PYRIMIDINE COMPOUNDS AS INHIBITORS OF TBK1 AND/OR IKK EPSILON” (Alzheimer's Institute of America, priority 2009, published 2015).
pIC50: −log10 of the molar value.

How the values were obtained:
TBK1 = target: T1, TBK1 (Homo sapiens, UniProt Q9UHD2); assay: In-vitro TBK1 kinase assay ([γ33]ATP filter-plate); type: biochemical; details: text bins; read-out: IC50 for inhibition of the kinase activity of TBK1
T1 construct: His-tag; made in house; host or cells: Sf9 insect cells
T1 sequence (Q9UHD2 1-729): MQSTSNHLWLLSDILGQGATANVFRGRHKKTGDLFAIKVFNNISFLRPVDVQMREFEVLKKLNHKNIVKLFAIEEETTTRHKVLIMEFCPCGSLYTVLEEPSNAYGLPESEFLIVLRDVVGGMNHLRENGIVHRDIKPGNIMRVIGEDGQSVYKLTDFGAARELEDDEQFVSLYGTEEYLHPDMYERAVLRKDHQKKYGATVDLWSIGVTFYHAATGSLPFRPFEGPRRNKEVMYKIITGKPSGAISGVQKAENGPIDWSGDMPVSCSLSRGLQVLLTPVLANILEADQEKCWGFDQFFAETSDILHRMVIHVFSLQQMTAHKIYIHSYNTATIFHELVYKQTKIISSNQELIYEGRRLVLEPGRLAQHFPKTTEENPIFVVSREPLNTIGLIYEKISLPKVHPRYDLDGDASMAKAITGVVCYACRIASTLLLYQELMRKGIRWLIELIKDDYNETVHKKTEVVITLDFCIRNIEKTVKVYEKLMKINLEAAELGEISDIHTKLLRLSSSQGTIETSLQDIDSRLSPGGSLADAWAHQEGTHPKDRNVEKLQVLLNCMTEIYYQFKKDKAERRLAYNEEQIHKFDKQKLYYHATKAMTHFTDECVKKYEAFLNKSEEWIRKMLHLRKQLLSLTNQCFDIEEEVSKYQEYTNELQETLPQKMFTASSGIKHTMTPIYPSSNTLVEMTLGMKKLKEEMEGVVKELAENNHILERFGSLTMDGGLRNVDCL
Outline: (§1)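 His-tagged IKKε and TBK1 from Sf9 cells were assayed with myelin basic protein or casein and [γ33]ATP at 2×Km ATP (32 μM for IKKε, 60 μM for TBK1). Enzyme was 0.1 or 0.015 μg/ml for IKKε and 0.1 or 0.02 μg/ml for TBK1 (normal/sensitized). Reactions ran 30-45 min, were filter-captured, scintillation-counted, and normalized to DMSO after background subtraction.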

IKKε = target: T2, IKKε (Homo sapiens, UniProt Q14164); assay: In-vitro IKKε kinase assay ([γ33]ATP filter-plate); type: biochemical; details: text bins; read-out: IC50 for inhibition of the kinase activity of IKKε
T2 construct: His-tag; made in house; host or cells: Sf9 insect cells
T2 sequence (Q14164 1-716): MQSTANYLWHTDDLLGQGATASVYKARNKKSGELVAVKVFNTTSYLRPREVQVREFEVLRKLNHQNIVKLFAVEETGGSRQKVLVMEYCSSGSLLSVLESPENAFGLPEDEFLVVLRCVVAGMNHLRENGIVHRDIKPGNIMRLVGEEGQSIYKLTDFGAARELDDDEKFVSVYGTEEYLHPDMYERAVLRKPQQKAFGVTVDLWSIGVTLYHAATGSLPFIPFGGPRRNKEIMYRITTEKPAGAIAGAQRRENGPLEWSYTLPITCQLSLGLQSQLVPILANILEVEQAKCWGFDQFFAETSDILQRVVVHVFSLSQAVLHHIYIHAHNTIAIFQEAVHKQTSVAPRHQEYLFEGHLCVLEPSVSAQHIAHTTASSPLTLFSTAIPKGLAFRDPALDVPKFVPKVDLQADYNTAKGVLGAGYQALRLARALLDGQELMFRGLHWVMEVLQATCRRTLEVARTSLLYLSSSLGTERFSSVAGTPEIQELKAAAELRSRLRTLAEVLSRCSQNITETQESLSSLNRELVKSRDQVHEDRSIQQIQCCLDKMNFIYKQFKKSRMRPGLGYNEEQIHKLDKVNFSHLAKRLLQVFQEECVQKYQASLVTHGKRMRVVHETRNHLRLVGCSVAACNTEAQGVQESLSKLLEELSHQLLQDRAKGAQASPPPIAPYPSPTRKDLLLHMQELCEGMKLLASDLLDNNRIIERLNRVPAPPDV
Outline: as §1

Row | Compound | pIC50 (TBK1) | pIC50 (IKKε)
1 | CNS(=O)(=O)Cc1ccc(Nc2nccc(-c3ccc(OCC(C)C)c(C#N)c3)n2)cc1 [compound 606, 1-[4-({4-[3-Cyano-4-(2-methylpropoxy)phenyl]pyrimidin-2-yl}amino)phenyl]-N-methylmethane-sulfonamide] | > 8.00 | > 8.30
2 | COc1cc(Nc2nccc(-c3ccc(OC)c(C#N)c3)n2)cc(OC2CCN(C)CC2)c1 [Example 259, 2-Methoxy-5-[2-({3-methoxy-5-[(1-methylpiperidin-4-yl)oxy]phenyl}amino)pyrimidin-4-yl]benzonitrile] | 7.00 to 8.00 | 7.30 to 8.30
3 | CC(C)C(=O)Nc1ccc(-c2ccnc(Nc3cccc(OCCN4CCOCC4)c3)n2)cc1C#N [compound 432, N-{2-cyano-4-[2-({3-[2-(morpholin-4-yl)ethoxy]phenyl}amino)pyrimidin-4-yl]phenyl}-2-methylpropanamide] | 7.00 to 8.00 | 7.30 to 8.30
4 | CN(C)CCOc1ccc(Nc2nccc(-c3cccc(C#N)c3)n2)cc1 [Example 291, 3-[2-({4-[2-(Dimethylamino)ethoxy]phenyl}amino)pyrimidin-4-yl]benzonitrile] | 7.00 to 8.00 | 6.30 to 7.30
5 | COc1cccc(Nc2nccc(-c3cccc(C#N)c3)n2)c1 [compound 389, 3-{2-[(3-Methoxyphenyl)amino]pyrimidin-4-yl}benzonitrile] | 6.30 to 7.00 | 6.30 to 7.30
6 | COc1ccc(-c2ccnc(Nc3cc(CN4CCNC(=O)C4)c(OC)c(OC)c3)n2)cc1C#N [Example 110, 5-[2-({3,4-Dimethoxy-5-[(3-oxopiperazin-1-yl)methyl]phenyl}amino)pyrimidin-4-yl]-2-methoxybenzonitrile] | > 8.00 | 7.30 to 8.30
7 | COc1cc(NC(=O)NC2CCCC2)cc(Nc2nccc(-c3ccc(OC)c(C#N)c3)n2)c1 [compound 332, 1-(3-{[4-(3-Cyano-4-methoxyphenyl)pyrimidin-2-yl]amino}-5-methoxyphenyl)-3-cyclopentylurea] | 7.00 to 8.00 | 7.30 to 8.30
8 | N#Cc1cc(-c2ccnc(Nc3cccc(CNCCN4CCOCC4)c3)n2)ccc1OC1CCOCC1 [compound 569, 5-(2-{[3-({[2-(Morpholin-4-yl)ethyl]amino}methyl)phenyl]amino}pyrimidin-4-yl)-2-(tetrahydro-2H-pyran-4-yloxy)benzonitrile] | 7.00 to 8.00 | 7.30 to 8.30
9 | N#Cc1cccc(-c2ccnc(Nc3ccc(N)cc3)n2)c1 [Example 55, 3-{2-[(4-Aminophenyl)amino]pyrimidin-4-yl}benzonitrile] | 6.30 to 7.00 | 6.30 to 7.30
10 | N#Cc1cc(-c2ccnc(Nc3ccc(N4CCOCC4)cc3)n2)ccc1OCCCNC(=O)CO [Example 181, N-{3-[2-cyano-4-(2-{[4-(morpholin-4-yl)phenyl]amino}pyrimidin-4-yl)phenoxy]propyl}-2-hydroxyacetamide] | > 8.00 | > 8.30
11 | N#Cc1cc(-c2ccnc(Nc3ccc(S(=O)(=O)N4CCOCC4)cc3)n2)ccc1OC1CCOCC1 [compound 363, 5-(2-{[4-(morpholin-4-ylsulfonyl)phenyl]amino}pyrimidin-4-yl)-2-(tetrahydro-2H-pyran-4-yloxy)benzonitrile] | > 8.00 | 7.30 to 8.30
12 | COc1cc(Nc2nccc(-c3ccc(OC4CCOCC4)c(C#N)c3)n2)ccc1S(=O)(=O)N(C)CCCN(C)C [compound 397] | > 8.00 | > 8.30
13 | COc1cc(Nc2nccc(-c3ccc(OC4CCOCC4)c(C#N)c3)n2)ccc1S(=O)(=O)NCCCO [Example 155, 4-({4-[3-cyano-4-(tetrahydro-2H-pyran-4-yloxy)phenyl]pyrimidin-2-yl}amino)-N-(3-hydroxypropyl)-2-methoxybenzene-sulfonamide] | > 8.00 | > 8.30
14 | COC(=O)c1ccc(Nc2nccc(-c3ccc(OC4CCOCC4)c(C#N)c3)n2)cc1OC [Example 235, methyl 4-({4-[3-cyano-4-(tetrahydro-2H-pyran-4-yloxy)phenyl]pyrimidin-2-yl}amino)-2-methoxybenzoate] | > 8.00 | > 8.30
15 | CS(=O)(=O)NCCOc1ccc(-c2ccnc(Nc3ccc(N4CCOCC4)cc3)n2)cc1C#N [Example 177, N-{2-[2-cyano-4-(2-{[4-(morpholin-4-yl)phenyl]amino}pyrimidin-4-yl)phenoxy]ethyl} methanesulfonamide] | 7.00 to 8.00 | 7.30 to 8.30
16 | N#Cc1cc(-c2ccnc(Nc3ccc(N4CCOCC4)cc3)n2)ccc1N [Example 217, 2-Amino-5-(2-{[4-(morpholin-4-yl)phenyl]amino}pyrimidin-4-yl)benzonitrile] | > 8.00 | 7.30 to 8.30
17 | N#Cc1cccc(-c2ccnc(Nc3cccc(NC(=O)NC4CCCC4)c3)n2)c1 [Example 201, 1-(3-{[4-(3-Cyanophenyl)pyrimidin-2-yl]amino}phenyl)-3-cyclopentylurea] | 7.00 to 8.00 | 7.30 to 8.30
18 | COc1cc(Nc2nccc(-c3ccc(OC4CCN(C(C)=O)CC4)c(C#N)c3)n2)cc(OC)c1OC [Example 34, 2-[(1-acetylpiperidin-4-yl)oxy]-5-{2-[(3,4,5-trimethoxyphenyl)amino]pyrimidin-4-yl}benzonitrile] | > 8.00 | > 8.30
19 | COc1ccc(Nc2nccc(-c3ccc(OC)c(C#N)c3)n2)cc1Cl [compound 327, 5-{2-[(3-Chloro-4-methoxyphenyl)amino]pyrimidin-4-yl}-2-methoxybenzonitrile] | 7.00 to 8.00 | 7.30 to 8.30
20 | COc1cc(Nc2nccc(-c3ccc(NC(=O)C(C)C)c(C#N)c3)n2)ccc1N1CCNC(=O)C1 [Example 88, N-[2-Cyano-4-(2-{[3-methoxy-4-(3-oxopiperazin-1-yl)phenyl]amino}pyrimidin-4-yl)phenyl]-2-methylpropanamide] | > 8.00 | > 8.30
21 | COc1cc(Nc2nccc(-c3ccc(O)c(C#N)c3)n2)ccc1N1CCNC(=O)C1 [compound 326, 2-Hydroxy-5-(2-{[3-methoxy-4-(3-oxopiperazin-1-yl)phenyl]amino}pyrimidin-4-yl)benzonitrile] | > 8.00 | > 8.30
22 | COc1cc(NC(=O)c2cccnc2)cc(Nc2nccc(-c3ccc(OC)c(C#N)c3)n2)c1 [compound 356, N-(3-{[4-(3-Cyano-4-methoxyphenyl)pyrimidin-2-yl]amino}-5-methoxyphenyl) pyridine-3-carboxamide] | 7.00 to 8.00 | 7.30 to 8.30
23 | COc1cc(Nc2nccc(-c3ccc(OC4CCN(C(=O)[C@H](C)O)CC4)c(C#N)c3)n2)ccc1OCCOCCN [Example 105, 5-[2-({4-[2-(2-aminoethoxy)ethoxy]-3-methoxyphenyl}amino)pyrimidin-4-yl]-2-({1-[(2S)-2-hydroxypropanoyl]piperidin-4-yl}oxy)benzonitrile] | 7.00 to 8.00 | 7.30 to 8.30
24 | COc1cc(N)cc(Nc2nccc(-c3ccc(OC)c(C#N)c3)n2)c1 [compound 358, 5-{2-[(3-Amino-5-methoxyphenyl)amino]pyrimidin-4-yl}-2-methoxybenzonitrile] | 7.00 to 8.00 | 7.30 to 8.30
25 | COc1cc(Nc2nccc(-c3ccc(OC4CCOCC4)c(C#N)c3)n2)ccc1OCCOCCNS(=O)(=O)N1CCOCC1 [Example 29, N-(2-{2-[4-({4-[3-cyano-4-(tetrahydro-2H-pyran-4-yloxy)phenyl]pyrimidin-2-yl}amino)-2-methoxyphenoxy]ethoxy}ethyl) morpholine-4-sulfonamide] | > 8.00 | > 8.30
